Results: PubChem BioAssay (NCI)
Where “and” joins values, the source holds several entries; their conditions need not be identical. Equal values may be shown once.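 In this assay, cells in 96-well plates receive the compound at five concentrations for 48 hours. Endpoints are linearly interpolated between the surrounding concentrations. GI50 is the concentration that inhibits growth by half. TGI marks complete inhibition of growth.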

Legend:
Experiment in all cases: NCI anticancer screen, dose series, 48 h
MDA-MB-231 breast = tested on: MDA-MB-231 breast
SF-295 CNS = tested on: SF-295 CNS
OVCAR-5 ovarian = tested on: OVCAR-5 ovarian
TK-10 renal = tested on: TK-10 renal
SN12C renal = tested on: SN12C renal
UACC-257 melanoma = tested on: UACC-257 melanoma
EKVX NSCLC = tested on: EKVX NSCLC
SF-268 CNS = tested on: SF-268 CNS
SNB-75 CNS = tested on: SNB-75 CNS
BT-549 breast = tested on: BT-549 breast

Structure (SMILES)	GI50 (MDA-MB-231 breast)	TGI (MDA-MB-231 breast)	GI50 (SF-295 CNS)	TGI (SF-295 CNS)	GI50 (OVCAR-5 ovarian)	TGI (OVCAR-5 ovarian)	GI50 (TK-10 renal)	TGI (TK-10 renal)	GI50 (SN12C renal)	TGI (SN12C renal)	GI50 (UACC-257 melanoma)	TGI (UACC-257 melanoma)	GI50 (EKVX NSCLC)	TGI (EKVX NSCLC)	GI50 (SF-268 CNS)	TGI (SF-268 CNS)	GI50 (SNB-75 CNS)	TGI (SNB-75 CNS)	GI50 (BT-549 breast)	TGI (BT-549 breast)
O=S(=O)(Nc1ccc(Br)cc1)c1ccc(-c2cnc(C3CC3)o2)cc1	3.77 µM	17.8 µM	1.13 µM	11.8 µM	4.55 µM	17.1 µM	5.36 µM	21.5 µM	4.41 µM	18.2 µM	10.5 µM	27.5 µM	3.39 µM	17.5 µM	5.05 µM	22.4 µM	0.518 µM	3.35 µM	3.37 µM	19.4 µM
CCN1C(=O)N(CC)C2C1NN=c1s/c(=C\c3ccc(Cl)cc3Cl)c(=O)n12 (stereo unspecified)	0.0336 µM	4.79 µM	0.0315 µM	27.1 µM	0.0547 µM	> 81.5 µM	13.4 µM	59.3 µM	0.0482 µM	> 53.4 µM	1.05 µM	> 88.4 µM	0.0423 µM	> 100 µM	0.0485 µM	> 67.5 µM	0.0258 µM	0.971 µM	0.0302 µM	2.48 µM
C1CSCCCSCCCSCCCSCCCSCCCSCCCSCCCSC1	–	> 100 µM	–	> 100 µM	–	> 100 µM	–	> 100 µM	–	> 100 µM	–	> 100 µM	–	> 100 µM	–	> 100 µM	–	–	–	> 100 µM
C[C@@H](NC(C#N)c1ccco1)c1ccccc1 (stereo partly specified)	–	–	–	> 100 µM	–	> 100 µM	–	> 100 µM	–	> 100 µM	–	> 100 µM	–	> 100 µM	–	> 100 µM	–	> 100 µM	–	> 100 µM
c1ccc(-c2nc(-c3ccccn3)nc(-c3ccccn3)n2)nc1	32.6 µM	> 100 µM	21.2 µM	> 100 µM	> 100 µM	> 100 µM	45.5 µM	> 100 µM	56.6 µM	> 100 µM	39.9 µM	> 100 µM	17 µM	> 100 µM	32.4 µM	> 100 µM	> 100 µM	> 100 µM	44.6 µM	> 100 µM
N#C[Se]Cc1cc(-c2ccccc2)n(-c2ccc(S(N)(=O)=O)cc2)n1	0.912 µM	3.12 µM	0.444 µM	2.48 µM	1.86 µM	3.97 µM	2.35 µM	7.83 µM	0.527 µM	4.1 µM	2.21 µM	6.63 µM	0.688 µM	12.6 µM	0.336 µM	1.33 µM	0.59 µM	3.51 µM	1.68 µM	4.55 µM
Cc1ccc2cnc(N)c(C#Cc3cc(C(=O)Nc4ccc(CN5CCN(C)CC5)c(C(F)(F)F)c4)cnc3C)c2c1	0.29 µM	1.06 µM	0.771 µM	1.75 µM	0.688 µM	1.49 µM	0.731 µM	1.48 µM	0.317 µM	1.06 µM	0.651 µM	1.48 µM	0.679 µM	1.53 µM	0.559 µM	1.27 µM	0.756 µM	1.61 µM	1.94 µM	6.23 µM
Cn1ncc(-c2ccc3c(=O)[nH]nc(CN)c3c2)c1-c1c(F)c(Cl)cc(OC2CC2)c1C#N	14.7 µM and 13.8 µM	29.8 µM and 28.4 µM	14.3 µM and 13.3 µM	28.4 µM and 27.2 µM	20.4 µM and 16.8 µM	77 µM and 44.7 µM	16.2 µM and 13.7 µM	31.8 µM and 27.2 µM	13.5 µM and 11.8 µM	28.7 µM and 25.3 µM	13.9 µM and 14.1 µM	28.4 µM and 29.4 µM	14.9 µM and 14 µM	30.5 µM and 29.6 µM	14.1 µM and 12.8 µM	28.8 µM and 26.7 µM	11.1 µM and 5.4 µM	23.7 µM and 20.7 µM	14.9 µM and 14.3 µM	30.2 µM and 28.6 µM
N=C1C(O)C2(I)c3ccccc3N3C(=N)C(O)C4c5ccccc5N1C4C32 (stereo unspecified)	–	67.8 µM	–	> 100 µM	–	> 100 µM	–	> 100 µM	–	> 100 µM	–	> 100 µM	–	> 100 µM	–	> 100 µM	–	> 100 µM	–	> 100 µM
O=C1OCC2=C1C(c1cccc(F)c1)c1cc3c(cc1N2CCO)OCO3 (stereo unspecified)	3.09 µM	> 50 µM	1.2 µM	> 50 µM	4.33 µM	> 50 µM	15.6 µM	> 50 µM	3.05 µM	> 50 µM	> 50 µM	> 50 µM	3.03 µM	> 50 µM	3.2 µM	> 50 µM	0.82 µM	2.8 µM	1.46 µM	> 50 µM
Nc1ncn([C@@H]2S[C@H](CO)[C@@H](O)[C@@H]2F)c(=O)n1	> 100 µM	> 100 µM	17.7 µM	> 100 µM	2.64 µM	> 100 µM	> 100 µM	> 100 µM	0.364 µM	> 100 µM	> 71.4 µM	> 100 µM	8.97 µM	> 100 µM	4.28 µM	> 100 µM	43.4 µM	> 100 µM	54.7 µM	> 100 µM
CC1CC(C)CC(C)C(O)/C(C#N)=C/C=C/CC(C2CCCC2C(=O)O)OC(=O)CC(O)C(C)C1 (stereo unspecified)	0.0193 µM	0.0706 µM	–	0.203 µM and 0.222 µM	0.023 µM	0.282 µM and < 0.0365 µM	–	0.089 µM and 0.432 µM	0.0342 µM	0.342 µM and 0.727 µM	0.0359 µM	0.17 µM and 0.0491 µM	0.0518 µM	0.384 µM and 0.465 µM	0.0307 µM	0.311 µM and 0.117 µM	0.0267 µM	0.0853 µM and 0.11 µM	0.0501 µM	0.636 µM and 0.321 µM
COc1cc(C)ccc1C(=O)c1ccc(C)cc1OC	7.58 µM	> 100 µM	1.95 µM	43.4 µM	7.02 µM	> 100 µM	9.15 µM	> 100 µM	15.7 µM	> 100 µM	54.8 µM	> 100 µM	5.29 µM	> 100 µM	7.92 µM	> 100 µM	3.25 µM	> 100 µM	4.23 µM	> 100 µM
